Measured values as given in patent US12661355B2, “Compounds and methods for inducing UCP1 expression” (The Regents of the University of California, priority 2020, dated 2026).

Tests used:
Ucp1 [1] = experiment: Gene expression by qPCR in immortalized brown adipocytes; type: cell-based, mouse
Description: (§1) Primary brown adipocytes were isolated according to known methods. An established mouse brown adipocyte cell line was obtained from Dr. Bruce Spiegelman (Dana-Farber Cancer Institute, Boston, USA). To differentiate primary and immortalized brown adipocytes, cells were grown until confluency in DMEM containing 10% FBS, 25 mM glucose 1 mM pyruvate, 2 mM glutamine, 20 nM insulin, 1 nM T3, and antibiotics. Once confluent (day 0), differentiation was induced by supplementing the medium with 0.5 mM IBMX, 0.5 μM dexamethasone, and 0.125 mM indomethacin, for 2 days. Differentiation was continued in the original medium (without IBMX, dexamethasone and indomethacin) for 7-10 days.
TScreening was conducted at the UCLA Molecular Screening Shared Resource using automated instruments Immortalized brown adipocytes were differentiated in T225 flasks and plated in Matrix 384-well plates (26,000 cells per well) with white flat bottom (ThermoScientific) using trypsin and collagenase type II (Sigma C6885). The small molecule libraries screened were a BioMol library (204 compounds), an FDA-approved drug library (1120 compounds), a Microsource spectrum collection (2000 compounds), and a druggable compound set (8000 compounds). Molecules were delivered at 10 μM final concentration in DMSO. The screen was performed in duplicate on different days. After 18 h, luciferase activity was measured with Bright-Glo luciferase assay system and an LJL instrument. Data were normalized to the basal response (100% activity) in the presence of DMSO. Following the primary screen, 92 molecules were selected for validation and used to treat brown adipocyte cells plated in a 96-well plate overnight. RNA was extracted with an SV 96 Total RNA Isolation System (Promega). Compounds used for follow-up studies were identified using search tools available from Molport (molport.com), and ordered from the same company.
(§2) RNA levels were measured by qPCR according to known methods. Briefly, RNA was extracted with TRIzol (Invitrogen) and reverse transcribed with iScript (Bio-Rad). Real-time PCR analysis was performed with a CFX Connect (Bio-Rad).
(§3) Mouse RNA levels were measured by qPCR according to known methods. Data were normalized to B2m and Tbp reference genes. Human RNA was extracted using an RNA Mini Plus kit (Zymo) and gene expression determined by Taqman assay. The 1-step qPCR was run on a QuantStudio 12K Flex Real Time PCR System (ThermoFisher) using the following protocol: 50° C. for 5 minutes, 95° C. for 20 seconds, 40 cycles of 95° C. for 15 seconds and 60° C. for 60 seconds. Data were normalized to PPIA and PSMB2 reference genes. For global gene expression analysis, RNA isolated from brown adipocytes treated with compounds as indicated (four biological replicates) was hybridized to Illumina mouse Ref 8 V2.0 bead chips at the University of California, Los Angeles Neuroscience Genomics Core as previously described. Data were processed with GenomeStudio V2011.1 using the quantile normalization, background subtraction, and a present call of P<0.05.

Ucp1 [2] = experiment: Gene expression by qPCR in primary brown adipocytes; type: cell-based, mouse; settings: for expression of markers of brown adipocyte identity, mitochondrial function and fatty acid oxidation genes / endogenous Ucp1 expression: 10 μM; for endogenous Ucp1 expression: primary mouse brown adipocytes
Description: as §1, §2, §3

PKA = PKA activity ELISA, brown adipocytes treated overnight; type: cell-based, mouse; settings: immortalized brown adipocytes, 10 μM
Description: PKA kinase activity was measured with an ELISA that utilized a synthetic peptide as substrate for PKA and a polyclonal antibody that recognizes the phosphorylated form of the substrate (ab139435, Abcam). PKA activity was measured in lysates from cultured brown adipocytes, mouse BAT, or liver. Cells and tissues were lysed in 20 mM MOPS, 5 mM EGTA, 2 mM EDTA, and 0.1% Triton X-100 supplemented with protease and phosphatase inhibitor as described above. Protein concentration was determined by Bradford assay and 10 μg of cells, 0.25 μg of BAT extract, or 0.5 μg of liver extract were assessed for PKA activation according to the manufacturer's instruction, with minor changes. Briefly, vehicle or Z160 was incubated with brown adipocyte cells overnight or with protein lysates for 30 min, followed by one wash before the primary antibody, 60 min incubation with the primary antibody, 30 min incubation with the secondary antibody, and by 10 min washing. Absorbance was measured after the substrate was added for 20-60 min, depending the intensity of the signal.

[3] = target: T1, AKAP1 and the PKA subunits (Mus musculus, UniProt O08715); experiment: Co-immunoprecipitation of PKA C-α and PKA RII-β with AKAP1; type: cell-based; settings: brown adipocytes, 10 μM for 7 h
T1 construct: Immortalized brown adipocyte cells were differentiated for 10 days and treated with 10 μM AST070 or Z160 for 7 h; endogenous in cells; host or cells: immortalized mouse brown adipocytes
Description: Immortalized brown adipocyte cells were differentiated for 10 days and treated with 10 μM AST070 or Z160 for 7 h. Cells were lysed in 150 mM NaCl, 50 mM Tris pH 7.5, 1% Nonidet P40, 0.5% Na-deoxycholate containing protease and phosphatase inhibitors. Cell lysates were incubated overnight at 4° C. with 2 μl of anti-AKAP1 antibody. Twenty microliter of Protein A/G PLUS agarose beads (Santa Cruz Biotechnologies) were added for 2 h at 4° C. After a initial wash (500 mM NaCl, 50 mM Tris pH 7.5, 0.1% Nonidet P40, 0.05% Na-deoxycholate) and a final wash (10 mM Tris pH 7.5, 0.1% Nonidet P40, 0.05% Na-deoxycholate), proteins were eluted from the beads with 1× loading buffer and 2% β-mercaptoethanol, boiled for 10 min and analyzed by Western blot. To avoid detecting the IgG heavy chain, TidyBlot Western Blot reagent:HRP (Bio-Rad) at 1:100 was used as secondary antibody to reveal the PKA subunits from the co-immunoprecipitation blot.
AKAP1 is known to localize PKA to the surface of mitochondria and to relay cAMP signaling for mitochondrial functions. Inspired by this information, an inquiry as to whether treatment with the reported compounds could alter the binding of AKAP1 to mitochondria was undertaken. Analysis began by treating brown adipocytes with Z160 and isolated mitochondria at different times. […]

[4] = immortalized brown adipocytes, 10 μM

| Structure (SMILES) | Ucp1 expression induction (Ucp1 [1]; 1 μM compared with 10 μM) | duration of effect on Ucp1 expression (Ucp1 [1]; 10 μM) | earliest time at which effect on Ucp1 expression was observed (Ucp1 [1]; 10 μM) [h] | expression of markers of brown adipocyte identity, mitochondrial function and fatty acid oxidation genes (Ucp1 [1]; [4]) | concentration of optimal Ucp1 expression induction (Ucp1 [1]; titration, overnight treatment) [µM] | expression of markers of brown adipocyte identity, mitochondrial function and fatty acid oxidation genes (Ucp1 [2]; primary brown adipocytes) | endogenous Ucp1 expression (Ucp1 [2]) [fold] | PKA activity (PKA) | signal for PKA subunit precipitation by AKAP1 [3] | potency on Ucp1 induction compared with AST070 (Ucp1 [1]; 10 μM) | expression of lipolytic enzymes (Atgl, Hsl) and FGF21 at the mRNA level (Ucp1 [1]; immortalized brown adipocytes, 10 μM overnight) | expression of lipolytic enzymes (Atgl, Hsl) and FGF21 at the mRNA level (Ucp1 [2]; primary brown adipocytes, 10 μM overnight) |
| --- | --- | --- | --- | --- | --- | --- | --- | --- | --- | --- | --- | --- |
| O=C(CSc1nc2ccccc2c(=O)[nH]1)Nc1ccc2c(c1)OCCO2 [AST070, N-(2,3-dihydro-1,4-benzodioxin-6-yl)-2-[(4-oxo-3,4-dihydroquinazolin-2-yl)sulfanyl]acetamide] | lower induction | at least 24 h | 5 | promoted expression | 10 | promoted expression | 29 | significantly increased | slightly enhanced |  |  |  |
| COc1ccc(NC(=O)CSc2nc3ccccc3c(=O)[nH]2)c(OC)c1 [Z160] |  |  |  | promoted expression |  | promoted expression | 62 | significantly increased | slightly enhanced | greater potency than AST070 | increased expression | increased expression |
